Measured values published in ChEMBL document CHEMBL1201862, “PubChem BioAssay data set” (2004).
Activity calls are given as the source filed them.

Legend:
[1] = target: DNA dC->dU-editing enzyme APOBEC-3A (Homo sapiens, UniProt P31941); test: A3A deaminase inhibition for selectivity – biochemical, dose response (AID 504722); type: functional
[2] = target: T1, Rac GTPase-activating protein 1 (Homo sapiens, UniProt Q9H0H5); test: blockers of MgcRacGAP-driven Rac1 GTP hydrolysis – biochemical, ADP Hunter fluorescence, primary and confirmatory, confirmation (AID 624330); type: functional
T1 sequence (Q9H0H5 whole entry): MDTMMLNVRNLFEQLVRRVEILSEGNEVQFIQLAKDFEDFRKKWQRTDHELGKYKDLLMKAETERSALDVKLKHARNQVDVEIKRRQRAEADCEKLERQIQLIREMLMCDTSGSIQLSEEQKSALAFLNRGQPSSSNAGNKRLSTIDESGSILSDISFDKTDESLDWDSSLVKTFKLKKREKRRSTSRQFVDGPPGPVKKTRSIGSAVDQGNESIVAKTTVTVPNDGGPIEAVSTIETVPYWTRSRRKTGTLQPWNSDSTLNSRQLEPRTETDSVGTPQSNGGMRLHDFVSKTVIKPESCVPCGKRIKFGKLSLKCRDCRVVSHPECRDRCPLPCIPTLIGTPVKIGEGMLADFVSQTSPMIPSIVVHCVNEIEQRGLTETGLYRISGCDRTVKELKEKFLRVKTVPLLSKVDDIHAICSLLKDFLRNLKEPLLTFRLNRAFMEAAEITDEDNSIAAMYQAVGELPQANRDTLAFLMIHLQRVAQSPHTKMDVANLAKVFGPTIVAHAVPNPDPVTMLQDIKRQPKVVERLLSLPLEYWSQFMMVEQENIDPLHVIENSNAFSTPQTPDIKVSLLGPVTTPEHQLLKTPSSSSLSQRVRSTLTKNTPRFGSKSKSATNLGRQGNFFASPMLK

[3] = target: DNA dC->dU-editing enzyme APOBEC-3G (Homo sapiens, UniProt Q9HC16); test: Dose Response confirmation of small molecule APOBEC3G DNA Deaminase Inhibitors via a fluorescence-based single-stranded DNA deaminase assay. [Related pubchem assays (depositor defined):AID493012, AID493028]; type: functional
[4] = target: T2, Bcl-2-like protein 10 (Homo sapiens, UniProt Q9HD36); test: Bcl-B/TR3 peptide binding disruption – biochemical, fluorescence polarization, FITC-TR3 peptide, selectivity assay for Bfl-1 inhibitor project, primary screen (AID 748);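 also: fluorescence polarization from a fluorescein-labelled TR3 peptide binding purified Bcl-B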
T2 sequence (Q9HD36 whole entry): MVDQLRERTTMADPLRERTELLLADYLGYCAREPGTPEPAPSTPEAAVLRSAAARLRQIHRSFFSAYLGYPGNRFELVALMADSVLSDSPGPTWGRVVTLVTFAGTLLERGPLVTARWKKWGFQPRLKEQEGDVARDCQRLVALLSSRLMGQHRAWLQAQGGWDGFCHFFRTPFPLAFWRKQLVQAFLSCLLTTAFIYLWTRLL

[5] = target: T3, Carboxy-terminal domain RNA polymerase II polypeptide A small phosphatase 1 (Homo sapiens, UniProt Q9GZU7); test: CTDSP1 inhibitors, concentration-response, biochemical, absorbance readout, ultra-high-throughput screen actives (AID 540297); type: functional
T3 sequence (Q9GZU7 whole entry): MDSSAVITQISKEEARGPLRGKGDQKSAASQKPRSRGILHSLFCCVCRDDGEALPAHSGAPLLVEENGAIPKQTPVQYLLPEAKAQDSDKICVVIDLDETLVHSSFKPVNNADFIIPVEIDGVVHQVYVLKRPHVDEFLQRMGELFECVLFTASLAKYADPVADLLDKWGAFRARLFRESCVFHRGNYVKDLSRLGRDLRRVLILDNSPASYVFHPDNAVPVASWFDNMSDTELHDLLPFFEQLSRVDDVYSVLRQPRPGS

[6] = THP-1 cell cytotoxicity, dose response, cytotoxicity control for non-replicating M. tuberculosis project (AID 489025); type: functional
[7] = Vero E6 cell cytotoxicity, dose response, cytotoxicity control for non-replicating M. tuberculosis project, secondary assay (AID 492998); type: functional, VeroE6; conditions: Vero C1008
[8] = target: T4, Zinc finger protein mex-5 (Caenorhabditis elegans, UniProt Q9XUB2); test: potency of MEX-5 RNA-binding blockers – biochemical, C. elegans, fluorescence polarization, dose response (AID 1960)
T4 sequence (Q9XUB2 whole entry): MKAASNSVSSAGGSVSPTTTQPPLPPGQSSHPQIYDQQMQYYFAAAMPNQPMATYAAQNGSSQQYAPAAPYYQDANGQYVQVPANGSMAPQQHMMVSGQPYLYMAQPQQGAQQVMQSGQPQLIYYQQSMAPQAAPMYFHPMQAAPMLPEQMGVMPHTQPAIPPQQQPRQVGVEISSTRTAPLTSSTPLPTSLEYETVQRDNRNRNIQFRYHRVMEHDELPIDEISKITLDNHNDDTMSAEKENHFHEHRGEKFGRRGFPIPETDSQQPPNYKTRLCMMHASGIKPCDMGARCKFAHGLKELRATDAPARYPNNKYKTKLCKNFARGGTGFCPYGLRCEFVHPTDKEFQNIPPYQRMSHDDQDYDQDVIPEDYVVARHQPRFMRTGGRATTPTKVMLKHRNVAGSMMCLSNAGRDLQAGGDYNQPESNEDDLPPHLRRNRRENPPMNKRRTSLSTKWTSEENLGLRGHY

[9] = target: G-protein coupled receptor 35 (Homo sapiens, UniProt Q9HC97); test: inhibition of zaprinast-stimulated GPR35 beta-arrestin translocation – imaging, U2OS, beta-arrestin-GFP, zaprinast agonist, primary screen (AID 2058); type: functional;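 also: antagonist potency meaning inhibition of agonist-induced arrestin redistribution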
[10] = target: T5, RNA-binding protein pos-1 (Caenorhabditis elegans, UniProt G5EF15); test: disruptors of C. elegans POS-1 RNA interaction – biochemical, fluorescence polarization, dose response (AID 1964);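 also: purified POS-1 fused to maltose binding protein made in E. coli; potency of compounds blocking POS-1 binding to fluorescent RNA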
T5 sequence (G5EF15 whole entry): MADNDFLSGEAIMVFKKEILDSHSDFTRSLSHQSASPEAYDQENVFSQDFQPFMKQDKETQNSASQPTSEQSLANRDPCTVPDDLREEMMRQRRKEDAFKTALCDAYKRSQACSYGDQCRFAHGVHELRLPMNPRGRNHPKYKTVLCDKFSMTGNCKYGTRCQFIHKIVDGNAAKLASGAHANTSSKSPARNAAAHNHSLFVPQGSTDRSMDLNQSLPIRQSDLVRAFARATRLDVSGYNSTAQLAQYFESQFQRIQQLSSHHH

[11] = target: SUMO-activating enzyme (Homo sapiens, UniProt Q9UBT2); test: blockers of UBC9-mediated SUMO conjugation – biochemical, AlphaScreen, SUMOylation inhibitor project, confirmation (AID 2018); type: functional
[12] = target: Cytochrome P450 2D6 (Homo sapiens, UniProt P10635);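 also: CYP2D6 member of a cytochrome P450 panel assay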
[13] = target: T6, Voltage-gated N-type calcium channel alpha-1B subunit/Amyloid beta A4 precursor protein-binding family A member 1 (Homo sapiens, UniProt Q00975+Q02410); type: protein assay
[14] = target: Cytochrome P450 2C19 (Homo sapiens, UniProt P33261); test: Cytochrome panel assay with activity outcomes. Panel member name: p450-cyp2c19 Compounds with AC50 equal or less than 10 uM are considered active; type: functional; conditions: read-out: AC50
[15] = target: T6, Voltage-gated N-type calcium channel alpha-1B subunit/Amyloid beta A4 precursor protein-binding family A member 1; type: protein assay; remark: listed apart in the source
[16] = target: T7, Tyrosine-protein phosphatase non-receptor type 22 (Homo sapiens, UniProt Q9Y2R2); test: SAR LYP1 Fluorescent Assay using pCAP substrate for In Vitro dose response studies - Set 2. [Related pubchem assays (depositor defined):AID1779, AID1784, AID2135, AID449727]; type: functional
T7 sequence (Q9Y2R2 whole entry): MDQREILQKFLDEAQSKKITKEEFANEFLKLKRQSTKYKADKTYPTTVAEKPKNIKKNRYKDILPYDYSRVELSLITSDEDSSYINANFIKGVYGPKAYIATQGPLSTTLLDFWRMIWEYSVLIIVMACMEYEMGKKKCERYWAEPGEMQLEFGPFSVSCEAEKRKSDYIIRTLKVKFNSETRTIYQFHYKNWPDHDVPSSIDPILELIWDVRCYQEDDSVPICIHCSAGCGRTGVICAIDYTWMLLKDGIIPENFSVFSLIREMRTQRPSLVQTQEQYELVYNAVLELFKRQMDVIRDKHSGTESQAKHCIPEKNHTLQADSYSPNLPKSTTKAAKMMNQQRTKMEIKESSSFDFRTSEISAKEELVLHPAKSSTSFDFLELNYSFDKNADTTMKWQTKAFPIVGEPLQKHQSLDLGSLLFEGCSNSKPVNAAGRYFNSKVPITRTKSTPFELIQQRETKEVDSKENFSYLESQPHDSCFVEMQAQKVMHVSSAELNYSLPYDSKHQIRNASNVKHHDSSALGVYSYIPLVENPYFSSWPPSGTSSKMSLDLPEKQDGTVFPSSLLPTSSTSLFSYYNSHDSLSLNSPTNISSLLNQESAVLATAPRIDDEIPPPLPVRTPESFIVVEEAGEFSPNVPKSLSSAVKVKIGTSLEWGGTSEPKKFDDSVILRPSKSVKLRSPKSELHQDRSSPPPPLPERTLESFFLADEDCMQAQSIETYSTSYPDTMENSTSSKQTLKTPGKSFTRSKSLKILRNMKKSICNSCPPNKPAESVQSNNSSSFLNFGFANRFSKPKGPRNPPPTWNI

[17] = target: T7, Tyrosine-protein phosphatase non-receptor type 22; test: inhibition of lymphoid tyrosine phosphatase LYP – biochemical, pCAP fluorogenic substrate, fluorescence, set 3, SAR follow-up (AID 449727); type: functional
[18] = target: T7, Tyrosine-protein phosphatase non-receptor type 22; test: SAR LYP1 Fluorescent Assay using OMFP substrate for In Vitro dose response studies - Set 2. [Related pubchem assays (depositor defined):AID1779, AID1784, AID2140, AID449726, AID488869]; type: functional
[19] = target: T8, Tyrosine-protein phosphatase non-receptor type 7 (Homo sapiens, UniProt P35236); test: inhibition of hematopoietic tyrosine phosphatase HePTP – biochemical, set 2, SAR follow-up (AID 449736); type: functional
T8 sequence (P35236 whole entry): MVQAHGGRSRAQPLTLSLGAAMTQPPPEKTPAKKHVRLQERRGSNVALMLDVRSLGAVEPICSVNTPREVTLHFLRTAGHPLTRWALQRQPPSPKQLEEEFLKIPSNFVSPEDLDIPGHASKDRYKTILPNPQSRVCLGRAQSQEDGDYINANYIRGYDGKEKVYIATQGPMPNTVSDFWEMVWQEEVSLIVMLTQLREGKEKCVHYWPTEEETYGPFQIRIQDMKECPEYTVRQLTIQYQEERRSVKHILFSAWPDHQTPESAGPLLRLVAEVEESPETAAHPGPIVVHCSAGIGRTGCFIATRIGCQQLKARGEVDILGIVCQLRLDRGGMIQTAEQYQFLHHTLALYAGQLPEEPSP

[20] = target: T7, Tyrosine-protein phosphatase non-receptor type 22; test: SAR LYP1 Fluorescent Assay using OMFP substrate for In Vitro dose response studies - Set 3. [Related pubchem assays (depositor defined):AID1779, AID1784, AID2140, AID2686]; type: functional
[21] = viability of uninfected HEp-2 cells – cell-based, HTS, cytotoxicity control for RSV inhibitor project, dose response (AID 2410); type: functional; conditions: human respiratory syncytial virus
[22] = viability of PTEN-deleted HCT116 cells – cell-based, HCT116 PTEN knockout, dose response (AID 1047); type: functional;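 also: HCT116 colon tumor cells with PTEN knocked out; cells exposed to compound for 60 hours before readout; potency for loss of cell viability measured by luminescence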
[23] = system: HEK293; test: EBV LMP1 TES2 canonical NF-kB signalling blockers – cell-based, HEK293, luciferase, cherry-pick, dose response (AID 588343); type: functional; conditions: Homo sapiens

T6 sequence (Q00975 whole entry): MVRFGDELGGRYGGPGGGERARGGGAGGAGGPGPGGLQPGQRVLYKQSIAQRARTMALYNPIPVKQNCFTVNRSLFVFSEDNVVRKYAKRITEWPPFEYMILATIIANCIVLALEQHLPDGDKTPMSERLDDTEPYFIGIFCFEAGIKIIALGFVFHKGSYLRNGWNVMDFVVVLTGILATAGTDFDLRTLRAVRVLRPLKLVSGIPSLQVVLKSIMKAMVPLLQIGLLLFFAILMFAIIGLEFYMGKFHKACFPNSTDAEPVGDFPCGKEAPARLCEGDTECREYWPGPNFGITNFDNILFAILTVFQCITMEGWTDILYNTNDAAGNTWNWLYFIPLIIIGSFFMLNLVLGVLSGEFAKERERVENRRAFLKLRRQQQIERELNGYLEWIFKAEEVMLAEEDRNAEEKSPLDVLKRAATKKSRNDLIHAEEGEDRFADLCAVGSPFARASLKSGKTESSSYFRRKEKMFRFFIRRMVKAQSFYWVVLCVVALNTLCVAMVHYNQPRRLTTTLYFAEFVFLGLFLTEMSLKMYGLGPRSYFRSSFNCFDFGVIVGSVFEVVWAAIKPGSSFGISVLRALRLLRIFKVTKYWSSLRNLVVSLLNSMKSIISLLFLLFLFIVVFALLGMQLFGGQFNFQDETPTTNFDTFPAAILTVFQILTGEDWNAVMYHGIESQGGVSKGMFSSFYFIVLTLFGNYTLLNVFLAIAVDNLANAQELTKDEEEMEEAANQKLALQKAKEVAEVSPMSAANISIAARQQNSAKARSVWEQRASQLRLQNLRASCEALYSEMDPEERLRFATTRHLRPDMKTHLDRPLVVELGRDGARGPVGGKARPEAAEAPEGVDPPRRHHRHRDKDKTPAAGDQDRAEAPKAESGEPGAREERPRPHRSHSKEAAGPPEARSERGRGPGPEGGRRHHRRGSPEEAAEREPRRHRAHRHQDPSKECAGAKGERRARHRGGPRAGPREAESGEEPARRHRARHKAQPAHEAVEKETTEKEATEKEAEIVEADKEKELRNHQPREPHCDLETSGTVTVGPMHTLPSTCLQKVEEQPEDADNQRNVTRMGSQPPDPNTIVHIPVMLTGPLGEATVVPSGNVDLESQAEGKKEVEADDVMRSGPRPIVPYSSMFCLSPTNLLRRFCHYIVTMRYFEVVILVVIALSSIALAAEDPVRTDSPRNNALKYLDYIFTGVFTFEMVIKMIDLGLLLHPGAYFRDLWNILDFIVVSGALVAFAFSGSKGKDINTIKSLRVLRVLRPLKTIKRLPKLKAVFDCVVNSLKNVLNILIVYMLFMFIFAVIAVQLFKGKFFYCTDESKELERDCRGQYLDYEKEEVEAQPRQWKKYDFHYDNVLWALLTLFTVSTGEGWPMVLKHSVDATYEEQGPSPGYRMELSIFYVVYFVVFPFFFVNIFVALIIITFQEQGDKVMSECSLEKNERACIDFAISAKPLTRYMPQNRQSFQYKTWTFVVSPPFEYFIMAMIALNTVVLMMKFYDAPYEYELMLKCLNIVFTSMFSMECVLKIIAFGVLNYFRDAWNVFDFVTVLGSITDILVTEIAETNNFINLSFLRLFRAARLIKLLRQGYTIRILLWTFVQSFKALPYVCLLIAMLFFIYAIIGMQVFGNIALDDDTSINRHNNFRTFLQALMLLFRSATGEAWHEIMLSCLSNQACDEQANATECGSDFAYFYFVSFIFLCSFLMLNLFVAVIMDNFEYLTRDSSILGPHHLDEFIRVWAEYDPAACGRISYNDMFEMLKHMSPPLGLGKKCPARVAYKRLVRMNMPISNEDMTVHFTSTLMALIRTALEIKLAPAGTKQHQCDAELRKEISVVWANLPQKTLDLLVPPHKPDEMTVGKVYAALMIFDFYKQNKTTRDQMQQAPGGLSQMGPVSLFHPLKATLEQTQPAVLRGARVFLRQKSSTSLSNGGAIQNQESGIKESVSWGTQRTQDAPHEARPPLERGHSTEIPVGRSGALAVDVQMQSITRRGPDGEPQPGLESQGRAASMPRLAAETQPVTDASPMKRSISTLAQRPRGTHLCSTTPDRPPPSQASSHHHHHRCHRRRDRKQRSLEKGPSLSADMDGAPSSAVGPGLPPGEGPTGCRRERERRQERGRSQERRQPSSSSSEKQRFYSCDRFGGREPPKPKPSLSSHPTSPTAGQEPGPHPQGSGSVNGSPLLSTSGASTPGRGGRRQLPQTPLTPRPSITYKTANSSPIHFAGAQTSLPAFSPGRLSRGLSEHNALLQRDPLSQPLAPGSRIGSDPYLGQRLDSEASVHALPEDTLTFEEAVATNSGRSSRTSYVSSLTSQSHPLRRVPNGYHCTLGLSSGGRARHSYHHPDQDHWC
T6 sequence (Q02410 whole entry): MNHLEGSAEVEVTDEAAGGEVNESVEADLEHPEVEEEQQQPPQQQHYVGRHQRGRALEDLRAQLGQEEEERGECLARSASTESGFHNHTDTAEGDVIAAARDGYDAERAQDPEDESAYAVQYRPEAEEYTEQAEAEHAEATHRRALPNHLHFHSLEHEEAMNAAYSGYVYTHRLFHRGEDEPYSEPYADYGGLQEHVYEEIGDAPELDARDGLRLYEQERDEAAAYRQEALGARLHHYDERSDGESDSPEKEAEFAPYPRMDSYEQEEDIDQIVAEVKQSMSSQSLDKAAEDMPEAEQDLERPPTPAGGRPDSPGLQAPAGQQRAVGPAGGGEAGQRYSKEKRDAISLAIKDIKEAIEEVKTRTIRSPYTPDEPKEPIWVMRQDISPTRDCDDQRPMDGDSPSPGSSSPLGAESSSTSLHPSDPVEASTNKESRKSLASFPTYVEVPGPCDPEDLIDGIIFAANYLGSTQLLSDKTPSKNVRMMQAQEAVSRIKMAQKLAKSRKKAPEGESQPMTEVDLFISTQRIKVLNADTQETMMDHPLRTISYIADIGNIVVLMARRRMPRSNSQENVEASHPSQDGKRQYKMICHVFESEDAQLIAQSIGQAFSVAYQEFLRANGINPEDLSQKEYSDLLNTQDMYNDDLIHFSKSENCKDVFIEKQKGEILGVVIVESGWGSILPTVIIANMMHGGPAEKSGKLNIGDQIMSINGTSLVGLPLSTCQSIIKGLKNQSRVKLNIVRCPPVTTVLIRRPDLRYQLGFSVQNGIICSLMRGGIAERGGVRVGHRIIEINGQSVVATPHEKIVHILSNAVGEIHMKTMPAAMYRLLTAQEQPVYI
DNA dC->dU-editing enzyme APOBEC-3G, sequence (Q9HC16 whole entry): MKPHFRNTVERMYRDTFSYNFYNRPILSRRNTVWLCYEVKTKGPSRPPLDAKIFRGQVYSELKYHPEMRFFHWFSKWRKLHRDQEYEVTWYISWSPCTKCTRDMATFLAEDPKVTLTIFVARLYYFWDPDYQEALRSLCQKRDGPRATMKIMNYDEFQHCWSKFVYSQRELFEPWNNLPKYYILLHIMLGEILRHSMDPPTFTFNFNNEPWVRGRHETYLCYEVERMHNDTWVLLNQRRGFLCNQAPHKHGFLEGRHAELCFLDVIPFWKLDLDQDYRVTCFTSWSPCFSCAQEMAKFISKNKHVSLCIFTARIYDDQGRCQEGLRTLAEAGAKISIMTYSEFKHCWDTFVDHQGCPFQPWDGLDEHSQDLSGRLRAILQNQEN
SUMO-activating enzyme, sequence (Q9UBE0 whole entry): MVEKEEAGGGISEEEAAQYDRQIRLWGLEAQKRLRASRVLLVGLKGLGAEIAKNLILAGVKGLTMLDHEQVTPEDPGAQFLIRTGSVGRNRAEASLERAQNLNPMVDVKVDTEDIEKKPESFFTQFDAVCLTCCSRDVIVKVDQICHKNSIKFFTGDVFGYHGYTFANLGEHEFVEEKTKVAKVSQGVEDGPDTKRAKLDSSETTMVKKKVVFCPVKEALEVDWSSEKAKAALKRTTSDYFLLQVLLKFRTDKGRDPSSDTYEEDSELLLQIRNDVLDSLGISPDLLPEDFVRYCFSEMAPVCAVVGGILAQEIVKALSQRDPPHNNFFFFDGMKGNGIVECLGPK
SUMO-activating enzyme, sequence (Q9UBT2 whole entry): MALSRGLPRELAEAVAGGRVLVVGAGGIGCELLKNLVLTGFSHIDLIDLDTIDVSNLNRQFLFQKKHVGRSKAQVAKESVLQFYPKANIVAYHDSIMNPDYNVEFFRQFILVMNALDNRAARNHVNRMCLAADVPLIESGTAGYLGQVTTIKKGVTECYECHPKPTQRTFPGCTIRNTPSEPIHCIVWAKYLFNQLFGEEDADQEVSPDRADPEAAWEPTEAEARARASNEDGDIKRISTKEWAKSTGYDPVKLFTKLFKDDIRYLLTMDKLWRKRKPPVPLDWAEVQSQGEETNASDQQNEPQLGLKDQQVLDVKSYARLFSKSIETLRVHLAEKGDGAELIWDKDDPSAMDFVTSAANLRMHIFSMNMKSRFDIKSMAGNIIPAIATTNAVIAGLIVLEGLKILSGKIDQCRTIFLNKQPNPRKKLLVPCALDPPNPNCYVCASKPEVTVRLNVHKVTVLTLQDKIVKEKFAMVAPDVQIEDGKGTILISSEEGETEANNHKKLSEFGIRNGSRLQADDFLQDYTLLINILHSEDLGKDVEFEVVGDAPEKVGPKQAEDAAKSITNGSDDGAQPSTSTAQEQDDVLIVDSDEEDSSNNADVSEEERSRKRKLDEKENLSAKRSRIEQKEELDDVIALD
DNA dC->dU-editing enzyme APOBEC-3A, sequence (P31941 whole entry): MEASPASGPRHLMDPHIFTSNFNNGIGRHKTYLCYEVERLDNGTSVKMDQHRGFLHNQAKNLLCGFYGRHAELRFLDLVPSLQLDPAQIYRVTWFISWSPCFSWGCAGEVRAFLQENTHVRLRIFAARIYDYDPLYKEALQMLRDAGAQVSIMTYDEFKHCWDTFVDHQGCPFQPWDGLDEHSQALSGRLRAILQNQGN
G-protein coupled receptor 35, sequence (Q9HC97 whole entry, the tested form may be a part): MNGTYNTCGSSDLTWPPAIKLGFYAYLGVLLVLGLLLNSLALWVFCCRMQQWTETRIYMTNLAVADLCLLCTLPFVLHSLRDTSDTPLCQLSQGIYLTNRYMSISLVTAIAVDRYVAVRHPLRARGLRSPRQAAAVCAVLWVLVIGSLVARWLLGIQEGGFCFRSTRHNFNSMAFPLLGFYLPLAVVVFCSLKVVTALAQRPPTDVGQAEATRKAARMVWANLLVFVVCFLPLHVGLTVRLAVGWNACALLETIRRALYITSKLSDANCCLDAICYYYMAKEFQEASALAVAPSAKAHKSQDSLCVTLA

Sc1nnc(-c2cccnc2)n1/N=C/c1cccs1
IC50 [1]: > 100 µM (inactive) | IC50 [2]: 58 µM (active) | IC50 [3]: 2.75 µM (active)

COCCCn1c(S)nnc1-c1ccc(Cl)cc1
IC50 [1]: > 100 µM (inactive) | IC50 [3]: 4.57 µM (active)

O=C(COC(=O)c1cncc(Br)c1)NCc1ccco1
IC50 [4]: 46.9 µM (active) | IC50 [5]: 4.6 µM (active)

O=C(Nc1ccc(N2CCN(C(=O)c3ccco3)CC2)c(Cl)c1)c1cccs1
CC50 [6]: > 40 µM (active) | CC50 [7]: > 20 µM (active)

COc1cccc(C2C3CN(C)CC=C3C(C#N)=C(N)C2(C#N)C#N)c1OC (centres undefined)
EC50 [8]: 8.49 µM (active) | IC50 [9]: 2.74 µM (active) | EC50 [10]: 2.18 µM (inconclusive)

Cc1c(C(=O)Nc2ccc(F)cc2)cn2c(nc3ccccc32)c1C#N
IC50 [11]: 41.7 µM (active)

COc1ccccc1OCCOc1ccc(/C=C2/C(=N)N3OC(C)=CC3=NC2=O)cc1OC
AC50 [12]: 6.31 µM (inconclusive) | IC50 [13]: 0.212 µM (active) | AC50 [14]: 2 µM (inconclusive) | IC50 [15]: > 50 µM (inactive)

O=C(N/N=C/c1ccc(O)cc1)c1ccc(-c2csc(Nc3ccc(Cl)cc3)n2)cc1
IC50 [16]: > 100 µM (inactive) | IC50 [17]: > 100 µM (inactive) | IC50 [18]: > 100 µM (inactive) | IC50 [19]: 24.1 µM (active) | IC50 [20]: > 100 µM (inactive)

COc1cc(NC(=O)c2cccc(F)c2)ccc1NC(=O)c1cc2ccccc2o1
IC50 [13]: 6.19 µM (active) | CC50 [21]: > 50 µM (active) | IC50 [15]: > 50 µM (inactive)

CCOC(=O)Cn1c2ccccc2c2nc3ccccc3nc21
EC50 [22]: 107 µM (active) | IC50 [11]: 29.6 µM (active)

CC1(C)Cc2c(ccc3ccccc23)/C(=C/C(=O)N2CCCCC2)N1
AC50 [23]: 26.1 µM (active) | IC50 [9]: 11 µM (inactive)
